Tests used:
786-O cells [1] = test: 786-O experimental RCC tumors in NMRI mice, antibody treatment (FIG. 10); assay type: in vivo; conditions: intraperitoneal once a week for 6 weeks, 5 mg/kg
Excerpt: FIG. 10. VEGF222/NF inhibition delays tumor growth of experimental RCC. 3M of 786-O cells were subcutaneously grafted in the left flank of NMRI mice. […] Tumor volumes were monitored with a caliper for 50 days. ***P<0.001, ****P<0.0001 (Anova Test).
For generating control or polyclonal anti-VEGF222/NF antibodies, 6 weeks BALB/cJRj mice (n=10) were immunized either with KLH carrier protein or with specific peptides SEQ 1 and SEQ2 coupled to KLH as previously described (Guyot et al., 2017, Targeting the pro-angiogenic forms of VEGF or inhibiting their expression as anti-cancer strategies. Oncotarget 8, 9174-9188) IgG were purified of Protein G Sepharose column. All animal studies were approved in advance by the local animal care committee (Veterinary service and direction of sanitary and social action of Monaco, Dr H. Raps.)

786-O cells [2] = test: 786-O experimental tumors in mice, anti-VEGFXXX/NF, bevacizumab or anti-KLH treatment (FIG. 12D-J); assay type: in vivo; conditions: 786-O tumors
Description: (E) The weight of 786-O tumors at the end of the experiment. (F) Quantification of Ki67 positive cells in 786-0 tumors. […] (G) Number of mature (CD31+, a-SMA+) vessels in the different tumor sections.
Plasma levels of VEGFXXX/NFand VEGF are increased in the VEGF bevacizumab-treated group. […] FIG. 13. A-D) The levels of VEGF and VEGF222/NF were evaluated in the plasma (just before sunitinib treatment) of 47 metastatic ccRCC patients. The third quartile was used as the cut-off to determine patients' groups, respectively 4500 […] for VEGF and VEGF222/NF. The plasma levels of VEGF (A and C) or VEGF222/NF (B and D) were correlated to PFS under first-line sunitinib treatment (A and B) or with OS (C and D). Kaplan-Meier method was used to produce survival curves and analyzes of censored data were performed using Cox models. Statistical significance (p values) is indicated.
Tumor sections (5-μm cryostat sections) were fixed in 4% paraformaldehyde for twenty minutes at room temperature and blocked in 1% donkey serum in Tris-buffered saline (TBS) for two hours. […] Preparations were mounted and analyzed with a Leica microscope (Leica DMI4000B) and counted at a 10× magnification. Results are expressed as the number of vessels per mm^2 of sections.

ACHN cells = test: Proliferation of ACHN cells overexpressing VEGF165 or VEGF222/NF; assay type: cell-based; conditions: overexpression in ACHN cells, versus LacZ
Description: FIG. 6. VEGF222/NF promotes the proliferation and the survival of RCC cells. […] Cells were counted for 7 days. ***P<0.001 vs LacZ. D-E) RT-qPCR analysis of the expression of VEGF222/NF and VEGF in ACHN (D) and in 786-O (E) cells transduced with pLKO.1 expressing shVEGF165 or shVEGF222/NF. *P<0.05. **P<0.01, ***P<0.001 vs Scramble.
For endothelial cell proliferation assays, TIME or HDLECs cells (50.000 and 25.000, respectively) were seeded in 6-well plates in Endothelial Cell Growth Medium (Promocell) containing 0.5% FBS. […] Results were expressed as fold increase considering day 0 as the reference. For ACHN proliferation, ACHN-LacZ, ACHN-VEGF165, ACHN-VEGF222/NF cells were seeded (20.000) in 6-well plates in DMEM medium containing 0.5% FBS. Cells were counted at day 0, 1, 3, 5 and 7. Results are expressed as fold increase considering day 0 as the reference.

[3] = In vivo […] plug assay (hemoglobin content); set-up: species or system mice; conditions: 200 ng in 200 μL MATRIGEL, two weeks
Description: A″) VEGF222/NF induces phosphorylation of VEGFR2 and activation of the downstream signaling pathways AKT and ERK. […] Cells were washed with PBS and lyzed with Laemmli buffer. Immuno blots were performed with the indicated antibodies. […] Cells were counted for 7 days. […] D) Wound closure was determined at 3 h, 6 h, 9 h and 12 h following treatment. E) In vitro permeability assay. […] Streptavidin-HRP was then added to the transwell for 10 minutes and TMB substrate was added in the lower compartment to assess permeability. F) In vivo permeability assay. […] After 20 minutes, ears were recovered, and the amount of Evans blue was determined by colorimetry (top panel). […] G) In vivo plug assay. […] Representative photographs of the […]® plug 15 days after implantation (bottom panel).
6-weeks old female NMRI mice (n=15) were used for this experiment. […] […]® plugs were recovered after two weeks for hemoglobin quantity analysis. Plugs hemoglobin content was assessed with the hemoglobin assay kit (Sigma Aldrich) and experiments were conducted according to the manufacturer recommendations. Results are expressed in micrograms of hemoglobin per milligram of […]®.

Molecule | tumor growth of 786-O experimental tumors (786-O cells [1]) | number of lymphatic vessels (LYVE1+) in tumors (786-O cells [2]) | size of tumors versus control group (786-O cells [2]) | ACHN cell proliferation (ACHN cells) | reddish aspect and hemoglobin content of plugs [3]
bevacizumab | did not | stimulated their development | equivalent to those of the control group | – | –
VEGF165: conventional pro-angiogenic VEGF isoform, recombinant, used as comparator (protein) APMAEGGGQNHHEVVKFMDVYQRSYCHPIETLVDIFQEYPDEIEYIFKPSCVPLMRCGGCCNDEGLECVPTEESNITMQIMRIKPHQGQHIGEMSFLQHNKCECRPKKDRARQENPCGPCSERRKHLFVQDPQTCKCSCKNTDSRCKARQLELNERTCRCDKPRR | – | – | – | stimulated ACHN cell proliferation | equivalent

From patent US20250346642A1, “NEW SPLICE VARIANT ISOFORM OF VEGF” (CENTRE NATIONAL DE LA RECHERCHE SCIENTIFIQUE (CNRS), priority 2020, published 2025)
